Source: patent US20260234146A1, “Use of Hypoxia-Inducible Factor-Prolyl Hydroxylase Inhibitor (HIF-PHI) in Rare Anemia” (Kind Pharmaceutical, priority 2023, published 2026)
Marks after values point to notes of the source that are not given here.

Legend:
MDS model mice = test: Effect on MDS model mice (RBC, Hb, HCT); type: in vivo, C57 mice
Protocol: Throughout the experimental stage, animals were housed in cages in an animal room with 24-hour continuous central air conditioning, temperature set at 20-26° C., relative air humidity set at 40-70%, and a 12-hour light/dark cycle. All animals had free access to food and sterilized drinking water. The C57 mice used in the experiment contained three knocked-in genes in their genome: Vav1-Cre, LSL, and c-Myc(T58A/S62E). Only animals positive for all three genes were used in the experiment. Expression of Vav1-Cre can induce cleavage at the LSL site, thereby allowing tTA gene expression. After induction with Doxycycline, tTA can bind to promoter of the c-Myc(T58A/S62E) gene, driving its expression, so that the animals develop an MDS phenotype. When the mice reached approximately 8 weeks of age, modeling commenced. They were fed a special diet (containing 200 mg doxycycline per kg of feed) for 4 weeks. Mice were anesthetized on days 0, 14, and 28, and 70 μl of blood was collected from the orbit to measure RBC, Hb, and HCT levels, confirming successful establishment of the MDS model. Subsequently, the mice were randomly divided into 3 groups, with 10 mice per group: Vehicle control group (0.1 M meglumine), Comp-1 low-dose group (10 mg/kg), and Comp-1 high-dose group (30 mg/kg). The dosing or vehicle volume was 6.67 mL/kg. The dosing or vehicle frequency for each group was oral gavage three times per week (TIW) for 4 consecutive weeks. That is, from week 4 to week 8 constituted the treatment period. Mice were anesthetized 14 days (experimental week 6) and 28 days (experimental week 8) after the start of dosing, and 70 μl of blood was collected from the orbit. Collected blood samples were placed in heparin-anticoagulant tubes, and RBC, Hb, and HCT levels in the blood were measured. After blood collection at the final time point for each animal, the animals were euthanized, and corresponding organ tissues were collected for storage and potential future use. Detection instrument: Element HT5 Veterinary Hematology Analyzer; Supplier: HESKA. Data analysis was performed using GraphPad Prism 9.0.

Hbb^d3th/d3th mice = test: Effect on homozygous β-thalassemia mice (CBC analysis); type: in vivo; set-up: HGB Hemoglobin content: unit not given here
Protocol: Throughout the experimental stage, animals were housed in cages in an animal room with 24-hour continuous central air conditioning, temperature set at 20-26° C., relative air humidity set at 40-70%, and a 12-hour light/dark cycle. All animals had free access to food (irradiated sterile feed) and water (prepared by an ultrapure water system). The mouse strain used in the experiment was: Hbb^d3th/d3th mice; female and male, 9-15 weeks old, weighing 25-30 grams. The breeding method involved one male paired with two females. Male mice with the Hbb^d3th/d3th genotype, and female mice with the Hbb^d3th/+ genotype were selected. At one week of age, tissue DNA was extracted from toe clips of offspring. Subsequently, PCR amplification and agarose gel electrophoresis for band separation were used for genotyping. Before the experiment, secondary genotyping was performed on mice of appropriate age, and mice with no significant differences in body weight and appearance were selected as experimental animals. Vehicle 1 (0.1 M meglumine aqueous solution) was prepared by dissolving an appropriate amount of meglumine (0.586 g) in an appropriate amount of deionized water (30 mL) with stirring to prepare the vehicle. After preparation, the vehicle was aliquoted into daily doses and stored at 5±3° C. Before administration, it was stirred at room temperature for at least 10 minutes and stirred continuously during the dosing process.
Comp-1: The required amount of Comp-1 was weighed, completely dissolved in an appropriate volume of Vehicle 1, with stirring and sonicating to form a solution. After visually observing dissolution, vehicle was gradually added to reach the specified volume. Before daily dosing, the formulations (including vehicle) were removed from refrigerator and allowed to reach room temperature. Formulations were stirred at room temperature for at least 10 minutes before administration and stirred throughout the dosing process. The route of administration was oral gavage for all groups, with a dosing volume of 10 mL/kg for all groups, and a dosing frequency of daily for a total of 42 days.
On days 0, 15, 29, and 43 of dosing, 50 μl of blood was collected from orbit of mice, stored at 4° C., and allowed to return to room temperature before analysis. Samples were then gently mixed and added to pre-prepared diluent (blood:diluent=1:6). Data were obtained using the instrument's pre-dilution mode for detection. Data statistics were processed and analyzed using Microsoft Office Excel (Microsoft Corporation, version 2013, Redmond, WA, USA) and GraphPad Prism 7.0. Red blood cell counts and percentages were reported with two significant FIGURES. T-test analysis was used for comparisons of blood cell counts and percentages between groups and within groups at different time points.

Townes SCD model mouse = test: Effect on SCD anemia mice (RBC, Hb, HCT); type: in vivo
Protocol: Throughout the experimental stage, animals were housed in cages in an animal room with 24-hour continuous central air conditioning, temperature set at 20-26° C., relative air humidity set at 40-70%, and a 12-hour light/dark cycle. All animals had free access to food and sterilized drinking water. The animal strain was B6·Cg-Hbb^tm2(HBG1,HBB)Tow/Hbat^ml(HBA)Tow/ShmtJ mice, a Townes SCD model mouse where mouse endogenous hemoglobin is replaced by knocked-in human hemoglobin. Two weeks after birth, mice were ear-punched for identification, and the ear tissue was collected for PCR analysis to determine its genotype. Mice confirmed as B6·Cg-Hbb^tm2(HBG1,HBB)Tow/Hbat^ml(HBA)Tow/ShmtJ were grouped. […] Blood sampling was performed every other week. Mice showing symptoms of anemia were selected for dosing. Animals were randomly divided into groups, 6 animals per group: Vehicle control group (0.1 M meglumine aqueous solution; oral gavage; volume: 6.67 mL/kg), Comp-1 group (30 mpk; oral gavage; volume: 6.67 mL/kg), and EPO group (50 U/30 g body weight; SC injection; MyBioSource, cat. #: MBS650094, erythropoietin alpha). Dosing was administered three times a week (TIW) for 4 consecutive weeks. On days 14 and 28 of dosing, 70 μL of blood was collected from orbit. Collected blood samples were placed in heparin-anticoagulant tubes. 15 μL of the blood sample from the anticoagulant tube was aspirated and added to an Element HT5 Veterinary Hematology Analyzer. RBC, Hb, and HCT in the blood were measured according to the instrument's operating instructions. Data analysis was performed using GraphPad Prism 9.0. […]

[1] = 10 mg/kg group, Before dosing Week 4
[2] = 10 mg/kg group, Pre-modeling Week 0
[3] = 10 mg/kg oral TIW, After 2 weeks of dosing Week 6
[4] = 10 mg/kg oral TIW, After 4 weeks of dosing Week 8
[5] = 30 mg/kg group, Before dosing Week 4
[6] = 30 mg/kg group, Pre-modeling Week 0
[7] = 30 mg/kg oral TIW, After 2 weeks of dosing Week 6
[8] = 30 mg/kg oral TIW, After 4 weeks of dosing Week 8
[9] = 30 mg/kg group, Before dosing Week 0
[10] = 30 mg/kg oral TIW, After 2 weeks of dosing Week 2
[11] = 30 mg/kg oral TIW, After 4 weeks of dosing Week 4

## O=C(O)CNC(=O)C1=C(O)C2(CCCC2)n2c(ccc2-c2ccccc2)C1=O [Comp-1, (6′-hydroxy-8′-oxo-3′-phenyl-8′H-spiro[cyclopentane-1,5′-indolizine]-7′-carbonyl)glycine]
MDS model mice; [1]
  HCT Hematocrit: 28.12%
  Hb Hemoglobin content: 9.52 g/dL
  RBC Red Blood Cell Count: 6.03 M/μL
MDS model mice; [2]
  HCT Hematocrit: 43.35%
  Hb Hemoglobin content: 14.90 g/dL
  RBC Red Blood Cell Count: 9.00 M/μL
MDS model mice; [3]
  HCT Hematocrit: 34.36%
  Hb Hemoglobin content: 10.97 g/dL
  RBC Red Blood Cell Count: 6.33 M/μL
MDS model mice; [4]
  HCT Hematocrit: 37.52%
  Hb Hemoglobin content: 11.77 g/dL
  RBC Red Blood Cell Count: 7.17 M/μL
MDS model mice; [5]
  HCT Hematocrit: 28.01%
  Hb Hemoglobin content: 9.54 g/dL
  RBC Red Blood Cell Count: 5.90 M/μL
MDS model mice; [6]
  HCT Hematocrit: 43.32%
  Hb Hemoglobin content: 14.37 g/dL
  RBC Red Blood Cell Count: 9.01 M/μL
MDS model mice; [7]
  HCT Hematocrit: 43.13%
  Hb Hemoglobin content: 13.56 g/dL
  RBC Red Blood Cell Count: 7.11 M/μL
MDS model mice; [8]
  HCT Hematocrit: 47.41%
  Hb Hemoglobin content: 14.91 g/dL
  RBC Red Blood Cell Count: 8.46 M/μL
Hbb^d3th/d3th mice; 5 mpk group, Day 0 (pre-dose)
  HCT Hematocrit: 27.58%
  HGB Hemoglobin content: 74.60
  RBC Red Blood Cell Count: 7.90 10^12/L
Hbb^d3th/d3th mice; 5 mpk oral daily, Day 15
  HCT Hematocrit: 31.16# %
  HGB Hemoglobin content: 81.20
  RBC Red Blood Cell Count: 8.35 10^12/L
Hbb^d3th/d3th mice; 5 mpk oral daily, Day 29
  HCT Hematocrit: 32.10## %
  HGB Hemoglobin content: 83.00
  RBC Red Blood Cell Count: 8.59 10^12/L
Hbb^d3th/d3th mice; 5 mpk oral daily, Day 43
  HCT Hematocrit: 31.04## %
  HGB Hemoglobin content: 80.20
  RBC Red Blood Cell Count: 8.58 10^12/L
Hbb^d3th/d3th mice; 10 mpk group, Day 0 (pre-dose)
  HCT Hematocrit: 26.20%
  HGB Hemoglobin content: 74.80
  RBC Red Blood Cell Count: 7.90 10^12/L
Hbb^d3th/d3th mice; 10 mpk oral daily, Day 15
  HCT Hematocrit: 31.92## %
  HGB Hemoglobin content: 83.60
  RBC Red Blood Cell Count: 8.60## 10^12/L
Hbb^d3th/d3th mice; 10 mpk oral daily, Day 29
  HCT Hematocrit: 33.02## %
  HGB Hemoglobin content: 88.04
  RBC Red Blood Cell Count: 9.15# 10^12/L
Hbb^d3th/d3th mice; 10 mpk oral daily, Day 43
  HCT Hematocrit: 33.36### %
  HGB Hemoglobin content: 89.40
  RBC Red Blood Cell Count: 9.30## 10^12/L
Hbb^d3th/d3th mice; 15 mpk group, Day 0 (pre-dose)
  HCT Hematocrit: 27.48%
  HGB Hemoglobin content: 75.00
  RBC Red Blood Cell Count: 7.77 10^12/L
Hbb^d3th/d3th mice; 15 mpk oral daily, Day 15
  HCT Hematocrit: 34.50## %
  HGB Hemoglobin content: 90.17
  RBC Red Blood Cell Count: 8.95# 10^12/L
Hbb^d3th/d3th mice; 15 mpk oral daily, Day 29
  HCT Hematocrit: 36.13### %
  HGB Hemoglobin content: 97.5
  RBC Red Blood Cell Count: 9.72#### 10^12/L
Hbb^d3th/d3th mice; 15 mpk oral daily, Day 43
  HCT Hematocrit: 36.10#### %
  HGB Hemoglobin content: 94.83
  RBC Red Blood Cell Count: 9.45#### 10^12/L
Townes SCD model mouse; [9]
  Arithmetic mean of HCT hematocrit: 27.20%
  Arithmetic mean of HGB hemoglobin content: 8.47 g/dL
  Arithmetic mean of RBC red blood cell count: 6.34 M/μL
Townes SCD model mouse; [10]
  Arithmetic mean of HCT hematocrit: 40.05%
  Arithmetic mean of HGB hemoglobin content: 11.63 g/dL
  Arithmetic mean of RBC red blood cell count: 8.88 M/μL
Townes SCD model mouse; [11]
  Arithmetic mean of HCT hematocrit: 41.45%
  Arithmetic mean of HGB hemoglobin content: 12.10 g/dL
  Arithmetic mean of RBC red blood cell count: 9.09 M/μL
